Measurements taken from patent US20210186930A1, “Methods of Treating Renal Disease Associated With Chronic Kidney Disease Such as Alport Syndrome” (UNIVERSITY OF MIAMI, priority 2018, published 2021).
“Also recorded” adds a separate entry of the source. One block for each molecule: values may come before it.

Tests used:
Col4a3−/− mice [1] = experiment: Renal function in Col4a3-/- mice treated with ezetimibe, ramipril or both (Example 1, FIG. 5); assay type: in vivo, mouse
Description: Albumin/creatinine ratio: All albuminuria values are expressed as μg albumin/mg creatinine. Albumin/creatinine determined by ELISA (Bethyl Laboratories) for albumin detection and a biochemical assay based on the Jaffe method for creatinine detection (Stanbio) as previously described. Serology: Immediately prior to sacrifice, a blood sample was collected for the determination of BUN and lipid panel analysis in the comparative laboratory core facility of the University of Miami. Serum creatinine was determined by tandem mass spectrometry (UAB-UCSD O'Brien Core Center, University of Alabama). The following experiment was performed to investigate which treatment, ezetimibe (EZ), ramipril (Ramp) or the combination of both drugs (EZ+Ramp), would best preserve renal function in Col4a3 knockout mice, all drugs were administered to 4-week-old Col4a3−/− mice for 4 weeks as follows: ezetimibe (Ez) was orally administered at a concentration of 5 mg/kg BW, ramipril was added to the drinking water at a concentration that would lead to a daily ramipril uptake of 10 mg/kg BW. All mice were sacrificed at 8 weeks of age. The following four groups of mice were analyzed: Col4a3^+/+, Col4a3^−/−+Ez, Col4a3^−/−+Ramp and Col4a3^−/−+Ez+Ramp.

Col4a3−/− mice [2] = experiment: Mesangial expansion (PAS) and renal fibrosis (Picrosirius Red) in Col4a3-/- mice (Example 3, FIG. 6); assay type: in vivo, mouse; settings: treated vs untreated Col4a3−/− mice; ezetimibe 5 mg/kg, ramipril 10 mg/kg, 4 weeks
Procedure: Assessment of mesangial expansion: Periodic acid-Schiff (PAS) staining of 4 μm-thick tissue sections was performed using a standard protocol. Twenty glomeruli per section were analyzed for mesangial expansion by semi quantitative analysis (scale 0-4) performed by two blinded independent investigators.
Picrosirius red staining: Paraffin-embedded sections (4 μm thick) were deparaffinized with xylene and a graded alcohol series. Sections were rinsed for 5 min in distilled water, stained for 1 hour with picrosirius red in saturated aqueous picric acid, examined under a light microscope and photomicrographs were taken. Histological images were visualized using a light microscope (Olympus BX 41, Tokyo, Japan) at 40× magnification and analyzed using Image J software.
The following experiment was performed to investigate which treatment, ezetimibe (EZ), ramipril (Ramp) or the combination of both drugs (EZ+Ramp), would best preserve renal function in Col4a3 knockout mice, all drugs were administered to 4-week-old Col4a3−/− mice for 4 weeks as follows: ezetimibe (Ez) was orally administered at a concentration of 5 mg/kg BW, ramipril was added to the drinking water at a concentration that would lead to a daily ramipril uptake of 10 mg/kg BW. All mice were sacrificed at 8 weeks of age. The following four groups of mice were analyzed: Col4a3^+/+, Col4a3^−/−+Ez, Col4a3^−/−+Ramp and Col4a3^−/−+Ez+Ramp.
PAS staining was performed to detect and quantify mesangial expansion, Picrossirius Red staining to detect and quantify renal fibrosis in treated compared to untreated Col4a3^−/− mice. […] Representative images for PAS staining are shown in FIG. 6A and of Picrosirius Red staining to detect fibrosis in […]. Bar graph quantifications for both are shown in FIGS. 6C and 6D, respectively.

Col4a3−/− mice [3] = experiment: Renal cortex lipid content in Col4a3-/- mice (Example 4, FIG. 7); assay type: in vivo, mouse; settings: treated vs untreated Col4a3−/− mice; ezetimibe 5 mg/kg, ramipril 10 mg/kg, 4 weeks
Procedure: Determination of cholesterol content in kidney cortex: Tissue from kidney cortexes was homogenized in hypotonic buffer (10 mM HEPES pH7.0, 15 mM KCl, 1 mM MgCl2, 10 mM phosphatase inhibitors). Lipids from 100 μl of the homogenate were extracted with 1 ml of hexane:isopropanol (3:2, v/v), dried and reconstituted in 100 μl of isopropanol-NP40 (9:1, v/v). Tissue fractions not soluble in the organic solvent, were further dried, reconstituted in 8 M urea, and assayed for protein concentration using Pierce BCA protein assay kit (ThermoFisher Scientific, MA, USA). Total cholesterol from lipid extracts was determined by the enzymatic method as previously described (Robinet, P., Wang, Z., Hazen, S. L. & Smith, J. D. A simple and sensitive enzymatic method for cholesterol quantification in macrophages and foam cells. Journal of lipid research 51, 3364-3369, 2010). Briefly, endogenous peroxides present were eliminated by incubating samples and standards with catalase (Sigma-Aldrich, MO, USA), 45 U/ml final concentration, for 15 min at 37° C. […] The plates were incubated at 37° C. for 30 min and fluorescence was read at 530 nm (Ex) and 580 nm (Em) in a plate reader (SpectraMax M5, Molecular Devices, CA, USA). Cholesteryl esters (CE) quantification was based on the method described from Toshimi M, et al. Briefly, 25 μl of samples was mixed with 150 μl of free cholesterol decomposition reagent (45 U/ml catalase, 1 U/ml cholesterol oxidase) and incubated 2-4 h at 37° C., and then the final volume was brought up to 250 μl prior to determining free and total cholesterol remaining. Total cholesterol remaining was determined by mixing 50 μl of end product reaction with 50 μl of reagent A, as described above. Free cholesterol remaining was determined similarly, but without including cholesterol esterase in the reagent. CE was calculated by the formula CE=(TC−FC)×DF, where TC is the total cholesterol remaining, FC the free cholesterol remaining and DF the dilution factor, in this case, 10. Lipid content: Oil Red 0 staining was performed on frozen tissue sections and triglyceride content was determined on snap frozen kidney tissue as described above. The following experiment was performed to investigate which treatment, ezetimibe (EZ), ramipril (Ramp) or the combination of both drugs (EZ+Ramp), would best preserve renal function in Col4a3 knockout mice, all drugs were administered to 4-week-old Col4a3−/− mice for 4 weeks as follows: ezetimibe (Ez) was orally administered at a concentration of 5 mg/kg BW, ramipril was added to the drinking water at a concentration that would lead to a daily ramipril uptake of 10 mg/kg BW. All mice were sacrificed at 8 weeks of age. The following four groups of mice were analyzed: Col4a3^+/+, Col4a3^−/−+Ez, Col4a3^−/−+Ramp and Col4a3^−/−+Ez+Ramp.

[4] = cited from earlier work
[5] = cited from earlier work; remark: listed apart in the source
human podocytes = experiment: Collagen treatment of human podocytes: lipid content and free fatty acid uptake (FIG. 1); assay type: cell-based
Procedure: (§1) Differentiated human podocytes were serum starved for 16 hours followed by 18 hours treatment with 50 μg/mL collagen I (Corning), collagen II (Discoverx), and collagen IV (Sigma Aldrich)
Lipid content determination: Following collagen treatment, podocyte lipid content was assessed after fixation with PFA and staining with Bodipy 493/503 and Cell Mask Blue (Invitrogen). The Opera High Content Screening system and Acapella Image Analysis software was used to determine the number of Bodipy 493/503 positive lipid droplets per cell. Triglyceride content was assessed using the Triglyceride Quantification Kit (Cell Biolabs) following manufacturer instructions and normalizing to cell protein content using the BCA method.
Free fatty acid uptake was assessed using the fluorometric free fatty acid uptake Kit (Abcam) in Ctrl and Col I treated podocytes after 1 hour serum starvation. The uptake of FFA was analyzed using a fluorimeter (SpectraMax5, […]).

DDR1 = target: T1, DDR1 (Homo sapiens, UniProt Q08345); experiment: DDR1 activation in human podocytes treated with collagen (FIG. 2); assay type: cell-based
T1 construct: Differentiated human podocytes were serum starved for 16 hours followed by 18 hours treatment with 50 μg/mL collagen I; endogenous in cells; host or cells: conditionally immortalized human podocyte cell line (Saleem et al. 2002), differentiated
T1 sequence (Q08345 19-913): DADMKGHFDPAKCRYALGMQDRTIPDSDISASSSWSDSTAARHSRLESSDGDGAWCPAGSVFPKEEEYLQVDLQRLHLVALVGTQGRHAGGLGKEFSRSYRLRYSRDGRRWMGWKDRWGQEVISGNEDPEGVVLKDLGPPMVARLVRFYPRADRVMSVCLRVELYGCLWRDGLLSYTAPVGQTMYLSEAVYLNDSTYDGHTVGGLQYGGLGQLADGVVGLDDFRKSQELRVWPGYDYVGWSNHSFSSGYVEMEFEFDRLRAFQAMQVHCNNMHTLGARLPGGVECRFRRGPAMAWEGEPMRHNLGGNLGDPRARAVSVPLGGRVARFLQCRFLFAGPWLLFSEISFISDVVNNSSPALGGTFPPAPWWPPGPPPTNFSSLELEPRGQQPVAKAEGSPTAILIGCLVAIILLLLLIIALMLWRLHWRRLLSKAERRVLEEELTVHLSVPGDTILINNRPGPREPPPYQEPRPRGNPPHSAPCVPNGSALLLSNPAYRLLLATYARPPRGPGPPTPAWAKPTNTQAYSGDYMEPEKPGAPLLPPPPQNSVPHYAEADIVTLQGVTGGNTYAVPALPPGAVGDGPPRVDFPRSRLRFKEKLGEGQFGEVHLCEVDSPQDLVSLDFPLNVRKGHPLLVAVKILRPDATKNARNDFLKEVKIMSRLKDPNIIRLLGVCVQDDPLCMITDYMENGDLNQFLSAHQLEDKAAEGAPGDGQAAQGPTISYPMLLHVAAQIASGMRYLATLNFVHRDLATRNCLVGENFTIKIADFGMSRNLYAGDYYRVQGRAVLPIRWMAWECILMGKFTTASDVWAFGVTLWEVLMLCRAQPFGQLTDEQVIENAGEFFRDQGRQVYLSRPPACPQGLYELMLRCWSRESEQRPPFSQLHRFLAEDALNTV
Procedure: as §1
Isolation of plasma membranes: Preparation of membrane pellets was performed by ultracentrifugation of cell pellets suspended in homogenization media (15 mM KCl, 1.5 mM MgCl2, 10 mM HEPES, 1 mM DTT) supplemented with protease inhibitors. Effective separation was verified by WB for Na-K ATPase.

[6] = Col4a3−/− mice treated 4 weeks, ezetimibe 5 mg/kg, ramipril 10 mg/kg, vs untreated Col4a3−/−
[7] = Col4a3−/− mice, 4 weeks treatment

Molecule: CCOC(=O)[C@H](CCc1ccccc1)N[C@@H](C)C(=O)N1[C@H](C(=O)O)C[C@@H]2CCC[C@@H]21 [ramipril, (2S,3aS,6aS)-1[(S)—N—[(S)-1-Carboxy-3-phenylpropyl]alanyl]octahydrocyclop-enta[b]pyrrole-2-carboxylic acid, 1-ethyl ester]
- albumin/creatinine ratio (ACR) (Col4a3−/− mice [1]; 4-week-old Col4a3−/− mice treated 4 weeks, ezetimibe 5 mg/kg BW oral, ramipril 10 mg/kg BW in drinking water, vs untreated Col4a3−/−): significant reduction in the albumin/creatinine ratio; also recorded: significant decrease in the albumin/creatinine ratio
- serum BUN levels (Col4a3−/− mice [1]; [6]): significant reduction in the serum BUN levels
- serum creatinine levels (Col4a3−/− mice [1]; [6]): significant reduction in the serum creatinine levels
- reduction of BUN levels, compared to ezetimibe alone (Col4a3−/− mice [1]; [7]): superior effect on reducing BUN levels
- reduction of serum creatinine, compared to ezetimibe alone (Col4a3−/− mice [1]; [7]): superior effect on reducing serum creatinine levels
- mesangial expansion (PAS staining, score) (Col4a3−/− mice [2]): significant reduction; also recorded: significantly reduced mesangial expansion
- renal fibrosis (Picrosirius Red staining) (Col4a3−/− mice [2]): significant reduction; also recorded: significantly reduced
- esterified cholesterol (CE) content in kidney cortexes (Col4a3−/− mice [3]): reduces the esterified cholesterol content; also recorded: significantly decreased
- triglyceride (TG) content in kidney cortexes (Col4a3−/− mice [3]): no effect on the Triglyceride content; also recorded: not observed
- solubility in polar organic solvents and buffered aqueous solutions [4]: soluble
- blood cholesterol levels ([5]; general knowledge stated in the patent): little or no effect
- peripheral arterial resistance and blood pressure ([5]; hypertensive patients): reduction in blood pressure without a compensatory rise in heart rate
- mortality ([5]; patients with clinical signs of congestive heart failure after surviving an acute myocardial infarction): reduce mortality

- activation of DDR1 at the plasma membrane (DDR1; human podocytes, plasma membrane fraction): leads to activation of DDR1
- DDR1 activation (pDDR1) (DDR1; normal human podocytes): leads to DDR1 activation
Molecule: Col I: collagen I (Corning), 50 μg/mL, used to treat human podocytes
- cholesterol ester to total cholesterol ratio (human podocytes; Col I treated human podocytes): mildly decreased
- esterified cholesterol content (human podocytes; Col I treated human podocytes): increased
- total cholesterol content (human podocytes; Col I treated human podocytes): increased total cholesterol content
- cellular triglyceride content (human podocytes; human podocytes after Col I treatment): increased
- number of lipid droplets per cell (BODIPY) (human podocytes; human podocytes, 50 μg/mL collagen, 18 hours, vs Ctrl): increased lipid droplet content
- free fatty acid uptake (human podocytes; human podocytes, collagen I treated vs Ctrl): increased
